Data published in publication PMC11859928, “Design, Synthesis, and Antiproliferative Activity of Novel Indole/1,2,4-Triazole Hybrids as Tubulin Polymerization Inhibitors” (Pharmaceuticals, 2025).
Read-outs that look alike come from different tables or passages of the source.

Assays:
[1] = tested on: ACHN; assay: NCI five-dose assay; type: cell-based, human; details: five dose levels
[2] = tested on: BT-549; assay: NCI five-dose assay; type: cell-based, human; details: BT-549, five dose levels
[3] = tested on: HCC-2998; assay: NCI five-dose assay; type: cell-based, human; details: Homo sapiens, HCC-2998, five dose levels
[4] = tested on: Melanoma subpanel; assay: NCI five-dose assay, subpanel mean; type: cell-based, human
[5] = tested on: Renal cancer subpanel; assay: NCI five-dose assay, subpanel mean; type: cell-based, human
[6] = tested on: UACC-257; assay: NCI five-dose assay; type: cell-based, human; details: UACC-257, five dose levels
[7] = tested on: NCI-H23; assay: NCI five-dose assay; type: cell-based, human; details: NCI-H23, five dose levels
[8] = tested on: Non-small cell lung cancer subpanel; assay: NCI five-dose assay, subpanel mean; type: cell-based, human
[9] = tested on: OVCAR-3; assay: NCI five-dose assay; type: cell-based, human; details: OVCAR-3, five dose levels
[10] = tested on: CAKI-1; assay: NCI five-dose assay; type: cell-based, human; details: CAKI-1, five dose levels
[11] = tested on: NCI-H322M; assay: NCI five-dose assay; type: cell-based, human; details: five dose levels
[12] = tested on: MDA-MB-468; assay: NCI five-dose assay; type: cell-based, human; details: MDA-MB-468, five dose levels
[13] = tested on: LOX IMVI; assay: NCI five-dose assay; type: cell-based, human; details: five dose levels
[14] = tested on: SF-539; assay: NCI five-dose assay; type: cell-based, human; details: SF-539, five dose levels
[15] = tested on: SF-295; assay: NCI five-dose assay; type: cell-based, human; details: SF-295, five dose levels
[16] = tested on: MDA/MB-231-ATCC; assay: NCI five-dose assay; type: cell-based, human; details: five dose levels
[17] = tested on: SR; assay: NCI five-dose assay; type: cell-based, human; details: five dose levels
[18] = molecular target: T1, tubulin (Sus scrofa, UniProt P02550+P02554); assay: Tubulin polymerization inhibitory assay; type: biochemical
T1 construct: purchased Cytoskeleton Inc., Denver, CO, USA
T1 sequence (P02554 whole entry): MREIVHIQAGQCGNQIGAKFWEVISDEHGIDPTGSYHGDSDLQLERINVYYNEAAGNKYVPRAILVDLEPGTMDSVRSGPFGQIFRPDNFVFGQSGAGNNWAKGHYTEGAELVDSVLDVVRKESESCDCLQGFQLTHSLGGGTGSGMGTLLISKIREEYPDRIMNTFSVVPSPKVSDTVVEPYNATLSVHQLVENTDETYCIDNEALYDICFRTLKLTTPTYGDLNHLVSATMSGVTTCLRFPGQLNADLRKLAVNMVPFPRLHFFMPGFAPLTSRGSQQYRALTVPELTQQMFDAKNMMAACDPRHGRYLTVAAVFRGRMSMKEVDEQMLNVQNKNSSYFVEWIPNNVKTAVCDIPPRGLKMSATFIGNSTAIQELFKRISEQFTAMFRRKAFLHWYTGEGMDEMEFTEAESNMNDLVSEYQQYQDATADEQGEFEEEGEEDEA
T1 sequence (P02550 whole entry): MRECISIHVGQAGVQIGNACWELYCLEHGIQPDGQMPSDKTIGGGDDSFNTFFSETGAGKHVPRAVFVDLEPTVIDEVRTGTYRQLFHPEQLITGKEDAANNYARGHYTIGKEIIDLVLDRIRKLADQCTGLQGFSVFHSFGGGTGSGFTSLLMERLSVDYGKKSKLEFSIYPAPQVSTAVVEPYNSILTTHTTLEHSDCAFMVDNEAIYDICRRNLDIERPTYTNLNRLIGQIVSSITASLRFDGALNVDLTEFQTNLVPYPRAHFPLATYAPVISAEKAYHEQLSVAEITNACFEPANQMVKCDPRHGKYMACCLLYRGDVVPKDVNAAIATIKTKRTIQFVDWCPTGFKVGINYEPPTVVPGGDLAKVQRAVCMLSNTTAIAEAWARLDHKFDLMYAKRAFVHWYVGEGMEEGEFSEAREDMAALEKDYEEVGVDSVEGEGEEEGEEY
Procedure, shortened: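 Compound effects on tubulin polymerization were measured with the Tubulin Polymerization Assay Kit (Cytoskeleton Inc., Denver, CO, USA), run as the supplier instructs, which detects polymerization through enhancement of a fluorescent reporter. Docetaxel served as the stabilizing control and vincristine as the destabilizing control, each at 3 µM in PBS.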

[19] = tested on: Ovarian cancer subpanel; assay: NCI five-dose assay, subpanel mean; type: cell-based, human
[20] = tested on: U251; assay: NCI five-dose assay; type: cell-based, human; details: U251, five dose levels
[21] = tested on: KM12; assay: NCI five-dose assay; type: cell-based, human; details: KM12, five dose levels
[22] = tested on: HCT-15; assay: NCI five-dose assay; type: cell-based, human; details: HCT-15, five dose levels
[23] = tested on: Colon cancer subpanel; assay: NCI five-dose assay, subpanel mean; type: cell-based, human
[24] = tested on: OVCAR-8; assay: NCI five-dose assay; type: cell-based, human; details: OVCAR-8, five dose levels
[25] = tested on: HOP-92; assay: NCI five-dose assay; type: cell-based, human; details: HOP-92, five dose levels
[26] = Homo sapiens, read-out: GI50 Conc. per Cell Lines
[27] = Homo sapiens, read-out: LC50 (the source's name)

O/N=C(\CSc1nnc(-c2c[nH]c3ccccc23)n1-c1ccccc1)c1ccc(Cl)cc1 [Compound 7j, (Z)-2-((5-(1H-Indol-3-yl)-4-phenyl-4H-1,2,4-triazol-3-yl)thio)-1-(4-chlorophenyl) Ethanone Oxime]
LC50 ([1]; Homo sapiens): > 100 µM | GI50 [1, 26]: 3.69 µM | TGI Conc. per Cell Lines [1]: 14.5 µM | TGI Conc. per Cell Lines [2]: 11.1 µM | GI50 [2, 26]: 3.71 µM | CC50 [2, 27]: 6.28 µM | GI50 ([3]; read-out: GI50 Conc. per Cell Lines): 4.74 µM | CC50 ([3]; read-out: LC50 (the source's name)): > 100 µM | GI50 ([4]; Homo sapiens, Melanoma, average sensitivity of all cell lines of the subpanel, read-out: GI50 Subpanel MID b): 3.42 µM | GI50 Selectivity Ratio (MID a/MID b) ([4]; Melanoma subpanel): 1.06 | GI50 ([5]; Homo sapiens, Renal cancer, average sensitivity of all cell lines of the subpanel, read-out: GI50 Subpanel MID b): 5.23 µM | GI50 Selectivity Ratio (MID a/MID b) ([5]; Renal cancer subpanel): 0.69 | GI50 [6, 26]: 4.67 µM | CC50 [6, 27]: > 100 µM | TGI Conc. per Cell Lines [6]: 87.8 µM | GI50 [7, 26]: 6.52 µM | CC50 [7, 27]: > 100 µM | TGI Conc. per Cell Lines [7]: >100 µM | GI50 ([8]; Homo sapiens, Non-small cell lung cancer, average sensitivity of all cell lines of the subpanel, read-out: GI50 Subpanel MID b): 3.86 µM | GI50 Selectivity Ratio (MID a/MID b) ([8]; Non-small cell lung cancer subpanel): 0.945 | LC50 ([9]; Homo sapiens): > 100 µM | GI50 [9, 26]: 4.58 µM | TGI Conc. per Cell Lines [9]: 32.4 µM | TGI Conc. per Cell Lines [10]: 12.4 µM | LC50 ([10]; Homo sapiens): > 100 µM | GI50 [10, 26]: 2.93 µM | GI50 [11, 26]: 5.71 µM | CC50 [11, 27]: > 100 µM | TGI Conc. per Cell Lines [11]: 7.33 µM | LC50 ([12]; Homo sapiens): 46 µM | GI50 [12, 26]: 1.72 µM | TGI Conc. per Cell Lines [12]: 3.47 µM | GI50 [13, 26]: 1.72 µM | CC50 [13, 27]: 17.4 µM | TGI Conc. per Cell Lines [13]: 3.12 µM | GI50 [14, 26]: 10.2 µM | CC50 [14, 27]: 51.2 µM | TGI Conc. per Cell Lines [14]: 29.5 µM | GI50 [15, 26]: 3.11 µM | CC50 [15, 27]: > 100 µM | TGI Conc. per Cell Lines [15]: 13.4 µM | LC50 ([16]; Homo sapiens): > 100 µM | GI50 [16, 26]: 1.87 µM | TGI Conc. per Cell Lines [16]: 3.66 µM | GI50 [17, 26]: 4.74 µM | CC50 [17, 27]: > 100 µM | TGI Conc. per Cell Lines [17]: >100 µM | %inhibition ([18]; conc 0.01 (unit not given; IC50 from this curve in µg/ml)): 5.23% | %inhibition ([18]; conc 0.1 (unit not given; IC50 from this curve in µg/ml)): 15.6% | %inhibition ([18]; conc 1 (unit not given; IC50 from this curve in µg/ml)): 34.8% | %inhibition ([18]; conc 10 (unit not given; IC50 from this curve in µg/ml)): 58.9% | %inhibition ([18]; conc 100 (unit not given; IC50 from this curve in µg/ml)): 87.6% | IC50 ([18]; read-out: Tub. IC50±SD (converted)): 6.26 µM | IC50 ([18]; read-out: Tubulin Inhibitory Effect, IC50): 6.26 ± 0.15 µM | GI50 ([19]; Homo sapiens, Ovarian cancer, average sensitivity of all cell lines of the subpanel, read-out: GI50 Subpanel MID b): 3.61 µM | GI50 Selectivity Ratio (MID a/MID b) ([19]; Ovarian cancer subpanel): 1.01 | GI50 ([20]; Homo sapiens, U-251, read-out: GI50 Conc. per Cell Lines): 4.73 µM | CC50 ([20]; Homo sapiens, U-251, read-out: LC50 (the source's name)): 46.9 µM | TGI Conc. per Cell Lines [20]: 81.2 µM | GI50 [21, 26]: 4.72 µM | CC50 [21, 27]: > 100 µM | TGI Conc. per Cell Lines [21]: >100 µM | TGI Conc. per Cell Lines [22]: 13.6 µM | GI50 [22, 26]: 3.2 µM | CC50 [22, 27]: > 100 µM | GI50 Selectivity Ratio (MID a/MID b) ([23]; Colon cancer subpanel): 0.978 | GI50 ([23]; Homo sapiens, Colon cancer, average sensitivity of all cell lines of the subpanel, read-out: GI50 Subpanel MID b): 3.73 µM | GI50 [24, 26]: 3.72 µM | CC50 [24, 27]: > 100 µM | TGI Conc. per Cell Lines [24]: 15.8 µM | TGI Conc. per Cell Lines [25]: 37.6 µM | GI50 [25, 26]: 3.84 µM | CC50 [25, 27]: > 100 µM
